Tests used:
Human CB2 = molecular target: T1, Human CB2 (Homo sapiens, UniProt P34972); assay: Human CB2 Radioligand Binding Assay; conditions: membranes from stably transfected CHO CB2 cells; competition with [3H] CP-55,940; read-out: CB2 Ligand Binding Asssay
T1 construct: expressed in transfected cells; membrane preparation
Description: (§1) This receptor binding filtration assay measures the receptor-ligand interactions of compounds by measuring ability to compete with a radiolabeled control ligand. Reactions were performed in 96 deep-well plate (Costar 3961) with a final volume of 600 ul. Compounds were added to each well either in single point (10 uM final) or dose-response. Compounds were delivered in DMSO or further diluted in incubation buffer to a final assay DMSO concentration of 1%. Incubation buffer (50 mM Tris-HCl pH 7.4, 2.5 mM EGTA, 5 mM MgCl2, 5.0 mg/ml fatty acid free BSA) was added to each well. Following buffer addition, [^3H] CP-55,940 was added. Tritiated CP-55,940 (Perkin Elmer) was used at the Kd determined from prior saturation binding experiments conducted on each lot of membranes. Membrane preparations from stably transfected CHO CB2 cells were added and the reaction was incubated for 90 minutes at 30° C. Unifilter GF/C filtration plates (Perkin Elmer) were pre-wet with 0.05% polyethylenimine. Samples were transferred to Unifilter plates and separation of unbound radioligand was achieved using a vacuum manifold (Millipore). Following thorough washing with 5 ml/well ice-cold wash buffer (50 mM Tris-HCl pH 7.4, 2.5 mM EGTA, 5 mM MgCl2, 0.5 mg/ml fatty acid free BSA), filterplates were dried completely. Betaplate Scint Scintillation cocktail (25 ul, Perkin Elmer) was applied and plates were read using Microbeta Trilux (Wallac). Data analysis was performed in Spotfire. Activity of the positive control (100 nM CP-55,940) was set as 100% efficacy.
Stable recombinant Human CB2-CHO cell membranes were prepared as follows: Chinese Hamster Ovarian (CHO) cells stably expressing human cannabinoid receptor type 2 were grown to ˜90% confluence in 15×100 mm culture dishes under puromycin selection (5 ug/ml) Cells were harvested from culture flasks using a cell scraper, were washed once with cold phosphate-buffered saline (calcium and magnesium free) and pelleted by centrifugation at 400 g for 5 min at 4° C. Cell pellet was washed once with cold phosphate-buffered saline and centrifuged again at 400×g for 5 min at 4° C. The pellet was suspended in ice-cold lysis buffer (10 mM Tris-HCl, 0.1 mM EDTA, containing […], pH 7.5) and homogenized in a chilled 7 ml glass dounce homogenizer using 50 strokes. The homogenate was centrifuged at 400 g for 15 min at 4° C. The cloudy supernatant was collected and centrifuged at 41000 g for 30 min at 4° C. The resulting pellet was washed with ice-cold sucrose-free lysis buffer and centrifuged again at 41000 g for 30 min at 4° C. The membrane pellet was suspended in sucrose-free storage buffer (10 mm Tris-HCl, 0.1 mM EDTA, pH 7.5) to a concentration of 2-3 mg protein/ml. Aliquots were flash frozen in liquid nitrogen and stored at −80° C. Concentration was determined using Dc protein assay kit (Bio-Rad).

[1] = molecular target: T2, human cannabinoid receptor type 1 (Homo sapiens, UniProt P21554); assay: Human CB1 Radioligand Binding Assay (basis of selectivity CB2 vs. CB1)
T2 construct: purchased Perkin Elmer RBHCB1M; host or cells: HEK 293 EBNA cells
T2 sequence (P21554 whole entry): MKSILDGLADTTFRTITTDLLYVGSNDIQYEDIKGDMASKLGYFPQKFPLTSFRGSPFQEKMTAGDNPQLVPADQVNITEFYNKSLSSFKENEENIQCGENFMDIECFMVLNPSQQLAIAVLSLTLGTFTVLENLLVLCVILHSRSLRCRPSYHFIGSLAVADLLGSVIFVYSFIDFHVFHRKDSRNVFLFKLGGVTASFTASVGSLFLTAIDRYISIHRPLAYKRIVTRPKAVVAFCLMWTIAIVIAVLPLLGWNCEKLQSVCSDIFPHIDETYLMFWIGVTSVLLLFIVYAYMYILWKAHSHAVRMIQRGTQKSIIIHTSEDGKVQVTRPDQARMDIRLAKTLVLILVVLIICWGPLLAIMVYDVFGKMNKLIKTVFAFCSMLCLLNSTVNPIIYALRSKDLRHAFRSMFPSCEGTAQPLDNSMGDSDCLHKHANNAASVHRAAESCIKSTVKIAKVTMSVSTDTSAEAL
Description: as §1
The CB1 binding assay was performed as described above except that HEK 293 EBNA cells expressing human cannabinoid receptor type 1 (Perkin Elmer cat #RBHCB1M) were used according the manufacturer's instructions. The incubation buffer was composed of 50 mM Tris-HCl pH 7.4, 2.5 mM EDTA, 5 mM MgCl2, 5.0 mg/ml fatty acid free BSA and the wash buffer was composed of 50 mM Tris-HCl pH 7.4, 2.5 mM EDTA, 5 mM MgCl2, 0.5 mg/ml fatty acid free BSA. Activity of the positive control (100 nM CP-55,940) was set as 100% efficacy.

T1 sequence (P34972 whole entry): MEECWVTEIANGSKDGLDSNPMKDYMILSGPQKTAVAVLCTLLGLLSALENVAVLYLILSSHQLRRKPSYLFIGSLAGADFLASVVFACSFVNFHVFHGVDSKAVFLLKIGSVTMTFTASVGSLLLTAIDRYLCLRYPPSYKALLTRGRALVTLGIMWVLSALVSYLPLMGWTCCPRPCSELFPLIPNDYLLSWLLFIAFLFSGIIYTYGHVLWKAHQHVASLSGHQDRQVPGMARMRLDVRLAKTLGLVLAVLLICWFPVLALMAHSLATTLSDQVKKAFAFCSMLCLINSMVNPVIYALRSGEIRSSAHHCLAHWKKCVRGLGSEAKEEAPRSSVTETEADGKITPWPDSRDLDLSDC

Structure (SMILES)	IC50 (radioligand displacement) (Human CB2)	Selectivity, CB2 vs. CB1 [1]
O=C(Nc1ccc(Cl)cc1)[C@H]1CCCn2cccc2[C@H]1c1ccccc1 (relative stereo) [Example 110, (8,9-cis)-N-(4-Chlorophenyl)-9-phenyl-6,7,8,9-tetrahydro-5H-pyrrolo[1,2-a]azepine-8-carboxamide]	< 1000 nM	− (− indicates < 10-fold)
O=C(Nc1ccc(OC(F)(F)F)cc1)[C@H]1CCCn2cccc2[C@H]1c1ccccc1 (relative stereo) [Example 114, (8,9-cis)-9-Phenyl-N-(4-(trifluoromethoxy)phenyl)-6,7,8,9-tetrahydro-5H-pyrrolo[1,2-a]azepine-8-carboxamide]	< 1000 nM	− (− indicates < 10-fold)
O=C(Nc1ccc(F)cc1F)C1CCCn2cccc2C1c1ccccc1 (single isomer, unassigned) [Example 106, (8,9-cis)-N-(2,4-Difluorophenyl)-9-phenyl-6,7,8,9-tetrahydro-5H-pyrrolo[1,2-a]azepine-8-carboxamide]	< 1000 nM	+ (+ indicates > 10-fold)
O=C(Nc1ccc(OC(F)(F)F)cc1)C1CCCn2cccc2C1c1ccccc1 (single isomer, unassigned) [Example 113, (8,9-trans)-9-Phenyl-N-(4-(trifluoromethoxy)phenyl)-6,7,8,9-tetrahydro-5H-pyrrolo[1,2-a]azepine-8-carboxamide]	> 1000 nM	− (− indicates < 10-fold)
CC(C)(C)c1ccc(C2c3cccn3CCN2C(=O)Nc2ccc(F)cc2F)cc1 (centres unmarked) [Example 2, 1-(4-tert-Butylphenyl)-N-(2,4-difluorophenyl)-3,4-dihydropyrrolo[1,2-a]pyrazine-2(1H)-carboxamide]	< 1000 nM	+ (+ indicates > 10-fold)
Cc1cccc(C2c3cccn3CCCN2C(=O)Nc2ccc(Cl)cc2Cl)c1 (centres unmarked) [Example 11, N-(2,4-Dichlorophenyl)-1-m-tolyl-4,5-dihydro-1H-pyrrolo[1,2-a][1,4]diazepine-2(3H)-carboxamide]	> 1000 nM	− (− indicates < 10-fold)
O=C(Nc1ccc(F)cc1F)N1CCCn2cccc2C1c1ccccc1 (centres unmarked) [Example 12, N-(2,4-Difluorophenyl)-1-phenyl-4,5-dihydro-1H-pyrrolo[1,2-a][1,4]diazepine-2(3H)-carboxamide]	> 1000 nM	− (− indicates < 10-fold)
O=C(Nc1ccc(Cl)cc1Cl)N1CCCn2cccc2C1c1ccccc1 (centres unmarked) [Example 13, N-(2,4-Dichlorophenyl)-1-phenyl-4,5-dihydro-1H-pyrrolo[1,2-a][1,4]diazepine-2(3H)-carboxamide]	> 1000 nM	− (− indicates < 10-fold)
CC(C)(C)c1cccc(C2c3cccn3CCCN2C(=O)Nc2ccc(F)cc2F)c1 (centres unmarked) [Example 18, 1-(3-tert-Butylphenyl)-N-(2,4-difluorophenyl)-4,5-dihydro-1H-pyrrolo[1,2-a][1,4]diazepine-2(3H)-carboxamide]	< 1000 nM	+ (+ indicates > 10-fold)
CC(C)(C)c1cccc(C2c3cccn3CCCN2C(=O)Nc2ccc(Cl)cc2Cl)c1 (centres unmarked) [Example 19, 1-(3-tert-Butylphenyl)-N-(2,4-dichlorophenyl)-4,5-dihydro-1H-pyrrolo[1,2-a][1,4]diazepine-2(3H)-carboxamide]	> 1000 nM	− (− indicates < 10-fold)

Second part, the compound after the results:

IC50 (radioligand displacement) (Human CB2)	Selectivity, CB2 vs. CB1 [1]	Structure (SMILES)
> 1000 nM	− (− indicates < 10-fold)	O=C(Nc1ccc(Cl)cc1)[C@H]1CCCn2cccc2[C@@H]1c1ccccc1 (relative stereo) [Example 109, (8,9-trans)-N-(4-Chlorophenyl)-9-phenyl-6,7,8,9-tetrahydro-5H-pyrrolo[1,2-a]azepine-8-carboxamide]
> 1000 nM	− (− indicates < 10-fold)	O=C(Nc1ccc(C(F)(F)F)cc1)[C@H]1CCCn2cccc2[C@@H]1c1ccccc1 (relative stereo) [Example 111, (8,9-trans)-9-Phenyl-N-(4-(trifluoromethyl)phenyl)-6,7,8,9-tetrahydro-5H-pyrrolo[1,2-a]azepine-8-carboxamide]
> 1000 nM	− (− indicates < 10-fold)	O=C(Nc1ccc(F)c(F)c1)C1CCCn2cccc2C1c1ccccc1 (single isomer, unassigned) [Example 108, (8,9-cis)-N-(3,4-Difluorophenyl)-9-phenyl-6,7,8,9-tetrahydro-5H-pyrrolo[1,2-a]azepine-8-carboxamide]
< 1000 nM	− (− indicates < 10-fold)	CC(C)(C)c1ccc(C2c3cccn3CCCC2NC(=O)Nc2ccc(Cl)cc2Cl)cc1 (single isomer, unassigned) [Example 118, 1-(9-(4-tert-Butylphenyl)-6,7,8,9-tetrahydro-5H-pyrrolo[1,2-a]azepin-8-yl)-3-(2,4-dichlorophenyl)urea]
> 1000 nM	− (− indicates < 10-fold)	CC(C)(C)c1ccc(C2c3cccn3CCCC2NC(=O)Nc2ccc(Cl)cc2Cl)cc1 (single isomer, unassigned) [Example 119, 1-(9-(4-tert-Butylphenyl)-6,7,8,9-tetrahydro-5H-pyrrolo[1,2-a]azepin-8-yl)-3-(2,4-dichlorophenyl)urea]
> 1000 nM	− (− indicates < 10-fold)	CC(C)(C)c1ccc(C2c3cccn3CCCC2NC(=O)Nc2ccc(Cl)c(Cl)c2)cc1 (single isomer, unassigned) [Example 120, 1-(9-(4-tert-Butylphenyl)-6,7,8,9-tetrahydro-5H-pyrrolo[1,2-a]azepin-8-yl)-3-(3,4-dichlorophenyl)urea]
> 1000 nM	− (− indicates < 10-fold)	CC(C)(C)c1ccc(C2c3cccn3CCCC2NC(=O)Nc2ccc(Cl)c(Cl)c2)cc1 (single isomer, unassigned) [Example 121, 1-(9-(4-tert-Butylphenyl)-6,7,8,9-tetrahydro-5H-pyrrolo[1,2-a]azepin-8-yl)-3-(3,4-dichlorophenyl)urea]
> 1000 nM	− (− indicates < 10-fold)	CC(C)(C)c1ccc(C2NCCn3cccc32)cc1 (centres unmarked) [Example 1, 1-(4-tert-Butylphenyl)-1,2,3,4-tetrahydropyrrolo[1,2-a]pyrazine]
> 1000 nM	+ (+ indicates > 10-fold)	O=C(Nc1ccc(F)cc1F)N1CCn2cccc2C1c1ccccc1 (centres unmarked) [Example 5, N-(2,4-Difluorophenyl)-1-phenyl-3,4-dihydropyrrolo[1,2-a]pyrazine-2(1H)-carboxamide]
< 1000 nM	+ (+ indicates > 10-fold)	CC(C)(C)c1ccc(C2c3cccn3CCCN2C(=O)Nc2ccc(F)cc2F)cc1 (centres unmarked) [Example 7, 1-(4-tert-Butylphenyl)-N-(2,4-difluorophenyl)-4,5-dihydro-1H-pyrrolo[1,2-a][1,4]diazepine-2(3H)-carboxamide]
< 1000 nM	− (− indicates < 10-fold)	Cc1ccc(C2c3cccn3CCCN2C(=O)Nc2ccc(F)cc2F)cc1 (centres unmarked) [Example 8, N-(2,4-Difluorophenyl)-1-p-tolyl-4,5-dihydro-1H-pyrrolo[1,2-a][1,4]diazepine-2(3H)-carboxamide]
> 1000 nM	− (− indicates < 10-fold)	Cc1cccc(C2c3cccn3CCCN2C(=O)Nc2ccc(F)cc2F)c1 (centres unmarked) [Example 10, N-(2,4-Difluorophenyl)-1-m-tolyl-4,5-dihydro-1H-pyrrolo[1,2-a][1,4]diazepine-2(3H)-carboxamide]

— patent US20090062253A1, “HETEROCYCLODIAZEPINE CANNABINOID RECEPTOR MODULATORS FOR TREATMENT OF DISEASE” (KALYPSYS, INC., priority 2007, published 2009)
